According to patent US20260376283A1, “A METHOD IMPLEMENTING MORPHOLOGICAL CHANGES OF EXTRACELLULAR ORGANELLE VESICLES SO AS TO EXAMINE THE TRANSPORTING ACTIVITY OF MEMBRANE TRANSPORT PROTEINS AND OTHER RELATED METHODS” (PARIS SCIENCES ET LETTRES, priority 2023, published 2026):

What was measured:
Type in all cases: biochemical
[1] = test system: Endoplasmic Reticulum extracellular organelle vesicle (SERCA pump); experiment: SERCA specificity: ER vesicle response to CaCl2 (Example 5); conditions: role: substrate, CaCl2 30 mOsm/L, ATP 100 μM, FIG. 7
Method: (§1) In this example, an Endoplasmic Reticulum extracellular organelle vesicle and a mitochondria extracellular organelle vesicle are isolated simultaneously with micropipettes, and visualized. ER and mitochondria extracellular organelle vesicles were both put in contact with CaCl2 (30 mOsm/L) and ATP (100 μM) during one hour.
(§2) FIG. 7 represents Endoplasmic Reticulum extracellular organelle vesicle and mitochondria extracellular organelle vesicle are maintained thanks two micropipettes into a HKM diluted buffer (30 mOsm/L). These extracellular organelle vesicles were isolated thanks to ER and mitochondria resident proteins, over-expressed by COS7 cells, before organelle vesicles extraction.
(§3) At t=0s, CaCl2 (30 mOsm/L) and ATP (100 μM) were added. Dotted line circles all correspond to the size of the vesicle before contacting with CaCl2.

[2] = test system: Endoplasmic Reticulum extracellular organelle vesicle (SERCA over-expressed); experiment: ER vesicle with over-expressed SERCA, response to CaCl2 (Example 7); conditions: role: substrate, CaCl2 60 mOsm/L, ATP 100 μM
Description: (§4) In this example, an Endoplasmic Reticulum extracellular organelle vesicle and a plasma membrane cell component are isolated with micropipettes.
(§5) The SERCA protein is over-expressed in cell 1 on its native organelle, the endoplasmic reticulum. In cell 2, SERCA is relocalized by genetic construction on the plasma membrane cell component. This finally serves to isolate with micropipettes, one endoplasmic reticulum extracellular vesicle with SERCA extracted from cell 1 and one plasma membrane cell component enriched with SERCA deriving from cell 2.
(§6) These extracellular organelle vesicle and plasma membrane cell component were isolated thanks to ER and plasma membrane protein probes, over-expressed by COS7 cells, before organelle vesicle and plasma membrane cell component extraction.
(§7) ER extracellular vesicle and plasma membrane cell component were both put in contact with CaCl2 (60 mOsm/L) and ATP (100 μM) during 5 minutes.
(§8) At t=0s, CaCl2 (60 mOsm/L) and ATP (100 μM) were added.

[3] = test system: Endoplasmic Reticulum extracellular organelle vesicle (SERCA pump); experiment: ER vesicle response to CaCl2 compared with nucleus (Example 6); conditions: role: substrate, CaCl2 60 mOsm/L / 20 mOsm/L, ATP 100 μM, FIG. 8
Method: (§9) In this example, an Endoplasmic Reticulum extracellular organelle vesicle and a nucleus cell component are isolated together from a same cell with one micropipette, and visualized. ER extracellular organelle vesicle and nucleus cell component were both put in contact with CaCl2 (20 mOsm/L) and ATP (100 μM) during 5 minutes.
(§10) FIG. 8 represents Endoplasmic Reticulum extracellular organelle vesicle and nucleus cell component are maintained thanks one micropipette into a HKM diluted buffer (30 mOsm/L). The extracellular organelle vesicle and the nucleus cell component were respectively isolated thanks to ER and nucleus probes, over-expressed by COS7 cells, before organelle vesicle and nucleus extraction.
(§11) At t=0s, CaCl2 (60 mOsm/L) and ATP (100 μM) were added. Dotted line circle corresponds to the size of the endoplasmic reticulum vesicle before contacting with CaCl2.

[4] = test system: Ca^2+ pump of the Endoplasmic Reticulum; experiment: Abnormal expression/activity of Ca2+ pump of ER by vesicle morphological change (Example 2)
Method: (§12) FIG. 3 A) represents an extracellular organelle vesicle of endoplasmic reticulum (ER) which is maintained thanks to a micropipette into a HKM diluted buffer (20 mOsm/L) as an extravesicular aqueous medium. This extracellular organelle vesicle has been isolated thanks to an ER resident protein (KDEL), over-expressed by COS7 cells, before organelle vesicles extraction.
At t=0s, CaCl2 (60 mOsm/L) and ATP (100 μM) were added. At t=20s, the ER extracellular organelle vesicle is deflated: it reached its minimum volume (Vi1) and its associated maximum fluorescence signal (Fi1).

[5] = test system: mitochondria extracellular organelle vesicle; experiment: SERCA specificity: mitochondria vesicle response to CaCl2 (Example 5); conditions: role: substrate, CaCl2 30 mOsm/L, ATP 100 μM, FIG. 7
Method: as §1, §2, §3

[6] = test system: plasma membrane cell component enriched with SERCA; experiment: Plasma membrane cell component enriched with SERCA, response to CaCl2 (Example 7); conditions: role: substrate, CaCl2 60 mOsm/L, ATP 100 μM, SERCA relocalized
Description: as §4, §5, §6, §7, §8

[7] = test system: ion pump SERCA localized on Endoplasmic Reticulum vesicles; experiment: Ca2+ pump transporting activity by morphological change (deflation/re-swelling) of ER extracellular organelle vesicles (Example 1)
Method: An initial HKM buffer was prepared with 50 mM Hepes (known as 2-[4-(2-hydroxyethyl)piperazin-1-yl]ethanesulfonic acid), 120 mM potassium acetate, and 1 mM MgCl2 (in Milli-Q water) at pH 7.4. Said initial HKM buffer has an osmolarity of 280±15 mOsm/L.
Then, a membrane tension is applied on cells so as to produce extracellular organelle vesicles without lysing them. At that step, the extracellular organelle vesicles are released (or produced) thanks to the lysis and the removal of the plasma membrane. The membrane tension is carried out by micro-manipulation of the cells under confocal microscope thanks to a micropipette aspiration technique. Micropipette radius is around 1 μm. Thanks to a slight aspiration, a bilayer tongue of the plasma membrane was sucked into the micropipette. The aspiration is then increased at an approximate rate of 10 mbar/min, causing a proportional increase in the bilayer surface tension. At a certain applied tension (e.g. surface tension<0.75 mN/m), the plasma membrane ruptured thanks to a pore opening in the plasma membrane and the extracellular organelle vesicles are released (or extracted).
After extraction, one or more extracellular organelle vesicles are isolated using a micropipette. The micropipettes are used to hold a vesicle during the following methods of the present invention. Before the addition of molecules (ions, sugars or drug molecules), an acquisition is launched to observe the initial size of the vesicle.
Once the acquisition is started, the extracellular organelle vesicle, held by the micropipette is passed through an aqueous solution containing CaCl2 (60 mOsm/L) and ATP (100 μM). Contacting calcium ions with said extracellular organelle vesicle increases the osmolarity of the extravesicular aqueous medium. […] This innovative process allows to examine the transporting activity of the ion pump SERCA localized on Endoplasmic Reticulum vesicles.
as §12, with “1” for “3”
At t=0s, CaCl2 (60 mOsm/L) and ATP (100 μM) were added. At t=20s, the ER extracellular organelle vesicle is deflated: it reached its minimum volume (Vi1) and its associated maximum fluorescence signal (Fl1).
Once the acquisition is started, the ER extracellular organelle vesicle, held by the micropipette is passed through an aqueous solution containing sucrose (60 mOsm). […] Sucrose can thus be used as a control or reference in the method of the present invention.

[8] = test system: nucleus cell component (SERCA pump); experiment: Nucleus cell component response to CaCl2 (Example 6); conditions: role: substrate, CaCl2 60 mOsm/L / 20 mOsm/L, ATP 100 μM, FIG. 8
Method: as §9, §10, §11

[9] = test system: ER extracellular organelle vesicle; experiment: Ca2+ internalization in ER extracellular organelle vesicle by Fluo8-AM fluorescence (Example 3); conditions: role: substrate, CaCl2 30 mOsm/L, ATP 100 μM, FIG. 5
Method: FIG. 5 represents an ER extracellular organelle vesicle which is maintained thanks to a micropipette into a HKM diluted buffer (20 mOsm/L). This extracellular organelle vesicle has been isolated thanks to an ER resident protein (KDEL), over-expressed by COS7 cells, before organelle vesicles extraction. Before organelle extraction, cells were incubated during 1 h with a fluorophore called “Fluo8-AM” to report for calcium volumic concentration in organelles thanks to green fluorescence emission.
At t=0s, CaCl2 (30 mOsm/L) and ATP (100 μM) were added. Fluorescence microscopy snaps are visualized on FIG. 5 and show calcium concentration inside the ER extracellular organelle vesicle during the experiment.

[10] = role: substrate, CaCl2 60 mOsm/L, ATP 100 μM, FIG. 3
[11] = role: substrate, CaCl2 60 mOsm/L, ATP 100 μM, FIG. 1

SMILES: [Ca+2].[Cl-].[Cl-] [CaCl2]
- ER vesicle volume 1h after contacting [1]: exhibits the same volume as its initial one
- ER vesicle volume 5 min after contacting [2]: exhibits a bigger volume as its initial one
- ER vesicle volume 5 min after contacting [3]: exhibits a bigger volume as its initial one
- time at which vesicle is deflated to minimum volume (Vi1) and maximum fluorescence (Fi1) [4, 10]: 20 s
- time at which vesicle re-swells to final volume and fluorescence (Vf and Ff) [4, 10]: 90 s
- vesicle volume at t=300s versus initial state ([4]; role: substrate; CaCl2 60 mOsm/L; ATP 100 μM; FIG. 3 B)): reached a higher volume than the initial state
- mitochondria vesicle volume 1h after contacting [5]: has deflated
- plasma membrane cell component response 5 min after contacting [6]: has deflated
- re-swelling process of vesicle ([7]; role: substrate, 60 mOsm/L, following minutes, CaCl2 with ATP (100 μM), sucrose as control): a re-swelling process is gradually observed
- deflation of vesicle on contacting ([7]; role: substrate, CaCl2 60 mOsm/L with ATP (100 μM), or sucrose 60 mOsm without ATP stated, vesicle internal 20 mOsm/L, COS7 ER vesicle): the vesicle deflates in a few seconds
- time at which vesicle is deflated to minimum volume (Vi1) and maximum fluorescence [7, 11]: 20 s
- time at which vesicle re-swells to final volume and fluorescence (Vf and Ff) [7, 11]: 90 s
- swelling state of vesicle at t=100s ([7]; role: substrate; CaCl2 60 mOsm/L; ATP 100 μM; FIG. 1 B)): the vesicle has almost reached its initial state of swelling
- Vf/Vi1 and Vf/Vi versus reference ratio (transporting activity of SERCA) ([7]; role: substrate, sucrose as reference compound, FIGS. 1 and 2): Vf/Vi1>Vf,ref/Vi1,ref, and Vf/Vi>Vf,ref/Vi,ref
- nucleus cell component response 5 min after contacting [8]: has deflated with no re-swelling
- internalization in the ER extracellular organelle vesicle [9]: internalized in the ER extracellular organelle vesicle
- Fluo8-AM fluorescence signal (calcium concentration inside vesicle) ([9]; cells incubated 1 h with Fluo8-AM): Fluorescence signal is rising after addition of CaCl2
